Measured values published in US20050136481A1, “Systems and methods for predicting the structure and function of multipass transmembrane proteins” (priority 2003, published 2005).

Experiments:
rhodopsin [1] = target: T1, rhodopsin (Bos taurus, UniProt P02699); conditions: Okada et al., 2001; cited from earlier work
rhodopsin [2] = target: T1, rhodopsin; conditions: experimental result, retinal ligand/protein complex, Okada et al., 2001; cited from earlier work
bovine rhodopsin = bovine rhodopsin (Bos taurus, UniProt P02699); experiment: HierDock binding energy calculation (Eq. 1) of retinal ligands docked into the rhodopsin structure; conditions: all-trans-retinal versus 11-cis-retinal, HierDock Eq. 1
Source text: The negative of the molecular surface of the protein was used to define potential binding regions within the target protein over which the various ligand conformations are to be sampled. The void regions are mapped with spheres generated over the whole target protein using the Sphgen program in DOCK (see Kuntz laboratory at UCSF, San Francisco, Calif.).
To locate the most favorable ligand binding site(s), DOCK 4.0 (Ewing and Kuntz, 1997, incorporated herein by reference) can be used to generate a set of conformations for binding the ligand of interest (e.g. in the case of rhodopsin, 11-cis-retinal—a ligand known to bind to bovine rhodopsin) to each of the overlapping docking regions identified above. For this docking step, a bump filter of 10, a non-distance-dependent dielectric constant of 1.0, and a cutoff of 10 Å may be used for energy evaluation. These values may be adjusted according to specific target proteins. […]
The ligand/protein conformations from Step 5 are further energy-minimized with all atoms (protein, lipid, and ligand) movable using conjugate gradients. The structure with the binding energy calculated by Eq. 1 is selected as: BE1=Energy[ligand in protein complex]−Energy[free Ligand in solvent] […]
Here the energy of the ligand in water is calculated using DREIDING FF and analytical volume Generalized-Born continuum solvation (GBCS) method. […]

T1 sequence (P02699 whole entry): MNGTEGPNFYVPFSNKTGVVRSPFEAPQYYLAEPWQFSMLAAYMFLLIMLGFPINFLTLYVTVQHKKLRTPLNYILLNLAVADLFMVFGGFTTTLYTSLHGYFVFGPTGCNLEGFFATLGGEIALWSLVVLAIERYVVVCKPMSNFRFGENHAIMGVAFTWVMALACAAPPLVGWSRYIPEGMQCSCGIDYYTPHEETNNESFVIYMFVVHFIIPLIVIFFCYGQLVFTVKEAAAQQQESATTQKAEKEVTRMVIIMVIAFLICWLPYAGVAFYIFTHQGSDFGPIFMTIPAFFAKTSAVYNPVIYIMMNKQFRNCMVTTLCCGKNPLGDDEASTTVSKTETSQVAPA
Chain of bovine rhodopsin (P02699 whole entry): as above

In the case of `CC1=C(/C=C/C(C)=C/C=C/C(C)=C/C=O)C(C)(C)CCC1` [11-cis-retinal], the “effect on G-protein signaling” value (rhodopsin [1]) is listed as “inverse agonist”.
For `CC1=C(/C=C/C(C)=C/C=C/C(C)=C/C=O)C(C)(C)CCC1` [retinal], the “energy stored upon isomerization in the protein” value (rhodopsin [2]) is given as 34.7 ± 2.2 kcal/mol.
With `CC1=C(/C=C/C(C)=C/C=C/C(C)=C/C=O)C(C)(C)CCC1` [all-trans-retinal] the “difference in binding energy” value (bovine rhodopsin) was 32 kcal/mol.
